{
  "source": "patent US7530196B2",
  "about": "“Method for improving plant growth by application of a mixture of sulfur and complexing agent” (BASF Aktiengesellschaft, priority 2001, dated 2009)",
  "key": {"Chinese leaves [1]": {"test_system": "Chinese leaves", "test": "Container experiment with Chinese leaves: mineral contents in leaves", "assay_type": "in vivo, Chinese leaves \"Kasumi\"", "details": "plant batch 1; for Iron content in ppm / Manganese content in ppm: Table 3", "method": "(§1) Experimental Set-Up: Container Experiment With Chinese Leaves • 1. without addition • 2. 8 mg S/pot/week • 3. 80 mg S/pot/week • 4. 2 mg sodium lignosulfonate/pot/week • 5. 20 mg sodium lignosulfonate/pot/week • 6. 10 mg mixture of 80% by weight sulfur and 20% by weight sodium lignosulfonate/pot/week • 7. 100 mg mixture of 80% by weight sulfur and 20% by weight sodium lignosulfonate/pot/week Method: Plant Species: Chinese leaves “Kasumi”, sown into P-soil in multi-cell trays, age at pricking out time into experimental containers: approx. 14 days; the same containers are planted twice. Soil from Ruchheim, loam, pH 7.4, mixed with quartz sand (for retaining the structural stability during the container experiment). PE pots/15, approx. 1 l substrate (1.5 kg). Greenhouse, 25° C., supplementary lighting suitable for assimilation. Plant food 15+10+15+2 with trace elements without chelating agent (LAB 2411D; 0.5 g/container/week). Using a syringe and cannula into the soil at a depth of approx. 1 cm to simulate trickle irrigation conditions. The additions were applied in one application weekly via the cannula. 10 mg of mixture M according to the invention/container/week correspond to approx. 5 kg/ha."}, "Chinese leaves [2]": {"test_system": "Chinese leaves", "test": "Container experiment with Chinese leaves: growth (fresh-matter yield)", "assay_type": "in vivo, Chinese leaves \"Kasumi\"", "method": "as §1"}, "[3]": {"details": "S 8 mg, lignosulfonate 2 mg, mixture M 10 mg"}, "[4]": {"details": "S 80 mg, lignosulfonate 20 mg, mixture M 100 mg"}, "[5]": {"details": "plant batch 1, S 8 mg, lignosulfonate 2 mg, mixture M 10 mg per pot/week"}, "[6]": {"details": "plant batch 1, S 80 mg, lignosulfonate 20 mg, mixture M 100 mg per pot/week"}, "[7]": {"details": "plant batch 2, S 8 mg, lignosulfonate 2 mg, mixture M 10 mg per pot/week"}, "[8]": {"details": "plant batch 2, S 80 mg, lignosulfonate 20 mg, mixture M 100 mg per pot/week"}},
  "data": [
    {"smiles": "S1SSSSSSS1", "note": "[Sulfur, sulfur]", "values": [
      {"measurement": "Iron content in ppm", "setting": "Chinese leaves [1]; [3]", "value": 140, "unit": "ppm"},
      {"measurement": "Manganese content in ppm", "setting": "Chinese leaves [1]; [3]", "value": 66, "unit": "ppm"},
      {"measurement": "Iron content in ppm", "setting": "Chinese leaves [1]; [4]", "value": 174, "unit": "ppm"},
      {"measurement": "Manganese content in ppm", "setting": "Chinese leaves [1]; [4]", "value": 67, "unit": "ppm"},
      {"measurement": "Fe content in leaves", "setting": "Chinese leaves [1]; [3]", "value": 140, "unit": "ppm in DM"},
      {"measurement": "Iron content in % of untreated", "setting": "Chinese leaves [1]; [3]", "value": "127 % of untreated"},
      {"measurement": "K content in leaves", "setting": "Chinese leaves [1]; [3]", "value": 5.23, "unit": "% in DM"},
      {"measurement": "Manganese content in % of untreated", "setting": "Chinese leaves [1]; [3]", "value": "101 % of untreated"},
      {"measurement": "Mg content in leaves", "setting": "Chinese leaves [1]; [3]", "value": 0.24, "unit": "% in DM"},
      {"measurement": "Mn content in leaves", "setting": "Chinese leaves [1]; [3]", "value": 66, "unit": "ppm in DM"},
      {"measurement": "N content in leaves", "setting": "Chinese leaves [1]; [3]", "value": 3.57, "unit": "% in DM"},
      {"measurement": "P content in leaves", "setting": "Chinese leaves [1]; [3]", "value": 0.46, "unit": "% in DM"},
      {"measurement": "Fe content in leaves", "setting": "Chinese leaves [1]; [4]", "value": 174, "unit": "ppm in DM"},
      {"measurement": "Iron content in % of untreated", "setting": "Chinese leaves [1]; [4]", "value": "158 % of untreated"},
      {"measurement": "K content in leaves", "setting": "Chinese leaves [1]; [4]", "value": 5.57, "unit": "% in DM"},
      {"measurement": "Manganese content in % of untreated", "setting": "Chinese leaves [1]; [4]", "value": "103 % of untreated"},
      {"measurement": "Mg content in leaves", "setting": "Chinese leaves [1]; [4]", "value": 0.25, "unit": "% in DM"},
      {"measurement": "Mn content in leaves", "setting": "Chinese leaves [1]; [4]", "value": 67, "unit": "ppm in DM"},
      {"measurement": "N content in leaves", "setting": "Chinese leaves [1]; [4]", "value": 3.86, "unit": "% in DM"},
      {"measurement": "P content in leaves", "setting": "Chinese leaves [1]; [4]", "value": 0.50, "unit": "% in DM"},
      {"measurement": "Effect on growth (in words)", "setting": "Chinese leaves [2]; increasing additions, in particular in the first batch of plants", "value": "no growth-promoting effect"},
      {"measurement": "Fresh-matter yield", "setting": "Chinese leaves [2]; [5]", "value": 106, "unit": "g/container"},
      {"measurement": "Fresh-matter yield % of untreated", "setting": "Chinese leaves [2]; [5]", "value": "97 % of untreated"},
      {"measurement": "Fresh-matter yield", "setting": "Chinese leaves [2]; [6]", "value": 108, "unit": "g/container"},
      {"measurement": "Fresh-matter yield % of untreated", "setting": "Chinese leaves [2]; [6]", "value": "99 % of untreated"},
      {"measurement": "Fresh-matter yield", "setting": "Chinese leaves [2]; [7]", "value": 67, "unit": "g/container"},
      {"measurement": "Fresh-matter yield % of untreated", "setting": "Chinese leaves [2]; [7]", "value": "96 % of untreated"},
      {"measurement": "Fresh-matter yield", "setting": "Chinese leaves [2]; [8]", "value": 68, "unit": "g/container"},
      {"measurement": "Fresh-matter yield % of untreated", "setting": "Chinese leaves [2]; [8]", "value": "97 % of untreated"}
    ]}
  ]
}
